In paper PMC5075052, “Modulation of the Substitution Pattern of 5-Aryl-2-Aminoimidazoles Allows Fine-Tuning of Their Antibiofilm Activity Spectrum and Toxicity” (Antimicrobial Agents and Chemotherapy, 2016):
pIC50: −log10 of the molar value. Read-outs that look alike come from different tables or passages of the source.

How the values were obtained:
[1] = tested on: S. aureus ATCC 6538; assay: Monospecies bacterial biofilm inhibition, static peg assay (Calgary device, crystal violet; planktonic OD600); assay type: cell-based, Staphylococcus aureus; details: Staphylococcus aureus, ATCC6538, S. aureus ATCC 6538, 37°C
Protocol: (§1) A static peg assay, described previously ([27], [74]), was used for bacterial biofilm formation. The Calgary biofilm device consists of a platform carrying 96 polystyrene pegs (Nunc no. 445497) that fits as a microtiter plate lid, with 1 peg hanging into each microtiter plate well (Nunc no. 269789). Twofold serial dilutions of the compounds (dissolved in 100% dimethyl sulfoxide [DMSO] or ethanol) in 100 μl liquid broth (TSB diluted 1/20) per well were prepared in the microtiter plate in duplicate or triplicate with a maximum concentration of 1,600 μM and a minimum concentration of 0.8 μM. Subsequently, an overnight culture of S. Typhimurium ATCC 14028, P. aeruginosa PA14, E. coli TG1, S. epidermidis, S. aureus SH1000, or S. aureus ATCC 6538 (all grown in LB) was diluted 1:100 into TSB diluted 1/20 (or TSB for S. epidermidis, S. aureus SH1000, and S. aureus ATCC 6538), whereas overnight cultures of S. liquefaciens MG44 and B. cepacia LMG1222T were diluted 1:50 into TSB diluted 1/20. P. gingivalis ATCC 33277 cultures were diluted in TSB diluted 1/20 to have a final concentration of 1 × 10^8 cells/ml. Next, 100 μl was added to each well of the microtiter plate, resulting in a total volume of 200 μl medium per well (final concentration range of compounds, 800 μM [2% DMSO or ethanol] to 0.4 μM [0.001% DMSO or ethanol]). In the next step, the pegged lid was placed on the microtiter plate and the plate was incubated for 24 h or 48 h at 25°C or 37°C without shaking. At 37°C, the plates were placed in a sealed container with wet towels on the bottom to prevent evaporation of the growth medium. Biofilms of P. gingivalis ATCC 33277 were grown anaerobically at 37°C for 72 h. During this incubation period, biofilms were formed on the surface of the pegs. After incubation, the optical density at 600 nm (OD600) for the planktonic cells in the microtiter plate was measured using a Synergy MX multimode reader (BioTek, Winooski, VT). This gives a first indication of the effect of the compounds on planktonic growth. For quantification of biofilm formation, the pegs were washed once in 200 μl PBS. The remaining attached bacteria were stained for 30 min with 200 μl 0.1% (wt/vol) crystal violet in an isopropanol-methanol-PBS solution (1:1:18, vol/vol). Excess stain was rinsed off by placing the pegs in a 96-well plate filled with 200 μl distilled water per well. After air drying of the pegs (30 min), the dye bound to the adherent biofilm was extracted with 30% glacial acetic acid (200 μl per well of a 96-well plate). The optical density at 570 nm (OD570) of each well was measured using a Synergy MX multimode reader (BioTek, Winooski, VT). The concentration of each compound needed to inhibit biofilm formation by 50% (BIC50) and the concentration of each compound needed to inhibit planktonic growth by 50% (IC50) were determined from the concentration gradient by using nonlinear curve fitting (GraphPad Prism software, version 5; GraphPad Software, Inc., La Jolla, CA). In the same assay, the effect on planktonic growth was evaluated. The activity was considered biofilm specific if the BIC50 was at least two times lower than the IC50. Data represent the means from at least 3 technical repeats with the corresponding 95% confidence intervals (provided in the supplemental material).

[2] = tested on: E. coli TG1; assay: Monospecies bacterial biofilm inhibition, static peg assay; assay type: cell-based, Escherichia coli; details: Escherichia coli
Protocol: as §1

[3] = tested on: E. coli TG1 + P. aeruginosa PA14; assay: Mixed-species E. coli-P. aeruginosa biofilm assay (peg, crystal violet); assay type: cell-based, Escherichia coli + Pseudomonas aeruginosa
Protocol: Overnight cultures of E. coli TG1 and P. aeruginosa PA14 were diluted 1/100 in the same vial of TSB diluted 1/20 to form a mixed-culture suspension. Next, 2-fold serial dilutions of the compounds (dissolved in 100% DMSO or ethanol) in 100 μl liquid broth (TSB diluted 1/20) per well were prepared in the microtiter plate of the Calgary biofilm device (Nunc no. 269789) in duplicate or triplicate with a maximum concentration of 1,600 μM and a minimum concentration of 0.8 μM. One hundred microliters of the mixed-culture suspension was added to each well of the microtiter plate, resulting in a total volume of 200 μl medium per well (final concentration range of compounds, 800 μM [2% DMSO or ethanol] to 0.4 μM [0.001% DMSO or ethanol]). The pegged lid was placed on the microtiter plate, and the plate was incubated for 72 h at 37°C, which allowed biofilm formation on the pegs (Nunc no. 269789) of the Calgary biofilm device. After 72 h, the biofilm was colored with crystal violet as described above ([74]). The OD570 (biofilm cells) and OD600 (planktonic cells) were measured, and the BIC50 and the IC50, respectively, were calculated.

[4] = tested on: osteoblasts (OB); assay: Mammalian cell viability assay, trypan blue staining; assay type: cell-based; details: 12.5 μM, 6 days of exposure
Protocol: The viability of two human primary cell types, namely, osteoblasts (OB) and bone marrow-derived mesenchymal stem cells (MSC), was tested according to the ISO 10993-5 standard, as previously described ([76]). Briefly, cells were seeded in 96-well tissue culture test plates (TPP; Trasadingen, Switzerland) at 5 × 10^3 cells/cm^2 in cell culture medium (advanced Dulbecco modified Eagle's medium [DMEM]) supplemented with 10% serum, 1× GlutaMAX, and 0.05 mg/ml gentamicin and were allowed to attach overnight. On the next day, the cells were exposed to (i) cell culture medium and medium with the corresponding control (0.5% ethanol or DMSO; negative controls), (ii) medium with 0.05% phenol (cytotoxic control), and (iii) medium with compounds (12.5 μM) and incubated for 2 h, 48 h, and 6 days (8 repeats for each condition). At each time point, the numbers of viable and dead cells were determined directly by trypan blue staining and indirectly by measuring metabolic activity with 3-(4,5-dimethylthiazol-2-yl)-2,5-diphenyltetrazolium bromide (MTT) staining.
The medium was removed from the wells, 1/3 trypan blue in DMEM was added to the cells, and the cells were incubated for 3 min, after which the trypan blue was removed and DMEM was added to the wells. In each of four wells, two microscopy fields were counted for viable (transparent) and dead (blue) cells.

[5] = planktonic OD600, read-out: IC50 (concentration needed to inhibit planktonic growth by 50%)
[6] = read-out: BIC50 (concentration needed to inhibit biofilm formation by 50%)
[7] = TG1, E. coli TG1, 25°C, read-out: BIC50
[8] = TG1, E. coli TG1, 25°C, read-out: IC50 (planktonic growth)
[9] = TG1, E. coli TG1, 37°C, read-out: BIC50
[10] = TG1, E. coli TG1, 37°C, read-out: IC50 (planktonic growth)
[11] = mixed E. coli TG1 + P. aeruginosa PA14, 37°C, read-out: IC50 (planktonic growth)
[12] = mixed E. coli TG1 + P. aeruginosa PA14 biofilm, 37°C, read-out: BIC50

Compound	pIC50 [1, 5]	pIC50 [1, 6]	pIC50 [2, 7]	pIC50 [2, 8]	pIC50 [2, 9]	pIC50 [2, 10]	pIC50 [3, 11]	pIC50 [3, 12]	proliferation of OB (trypan blue) [4]	viability of OB (trypan blue) [4]
CCCCCCCCn1c(-c2ccc(Cl)cc2)cnc1NCC(C)C [Compound 8b]	5.03	5.24	4.53	4.04	3.48	5.21	< 3.40	< 3.40		
CCCCCCCCn1c(-c2ccc(Br)cc2)cnc1NCC(C)C [Compound 8c]	3.76	4.39	< 3.40	3.82	< 3.40	4.13	< 3.40	< 3.40	increase in proliferation	very slightly reduced
CCCCCCCCn1c(-c2ccc(Cl)c(Cl)c2)cnc1NCC(C)C [Compound 8d]	< 3.40	3.94	< 3.40	3.59	< 3.40	4.33	< 3.40	< 3.40	increase in proliferation	
CCCCCCCCn1c(-c2ccccc2)cnc1NC1CCCC1 [Compound 8e]	4.33	6.00	~4.57	3.72	~4.56	4.98	< 3.40	4.00	slightly reduced	
CCCCCCCCn1c(-c2ccc(Cl)cc2)cnc1NC1CCCC1 [Compound 8f]	~4.62	5.17	4.54	< 3.40	3.51	3.43	< 3.40	3.40		
CCCCCCCCn1c(-c2ccc(Br)cc2)cnc1NC1CCCC1 [Compound 8g]	4.72	5.07	4.37	< 3.40	< 3.40	3.63	< 3.40	< 3.40	increase in proliferation	
CCCCCCCCn1c(-c2ccc(Cl)c(Cl)c2)cnc1NC1CCCC1 [Compound 8h]	4.71	5.42	< 3.40	< 3.40	< 3.40	< 3.40	< 3.40	< 3.40	increase in proliferation	
